Results published in patent US20250098679A1, “HERBICIDAL PYRIDONE DERIVATIVES” (SYNGENTA CROP PROTECTION AG, priority 2021, published 2025).

Columns and labels:
Format in all cases: in vivo
Conditions in all cases: evaluated after 13 days
[1] = system: Ipomoea hederacea (IPOHE); test: Post-emergence Test, Ipomoea hederacea (IPOHE); set-up: key to percentage damage caused to the plant, IPOHE (five-point scale): 5=81-100%, 4=61-80%, 3=41-60%, 2=21-40%, 1=0-20% damage
In short: (§1)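 Sown pots in a glasshouse (24/16 °C day/night, 14 h light, 65% humidity) were sprayed with compound in acetone/water (50:50) with 0.5% Tween 20, at 1000 g/ha unless otherwise stated. Damage was assessed 13 days after spraying and scored 1–5 (5=81-100%, 1=0-20%).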

[2] = system: Zea mays (ZEAMX); test: Post-emergence Test, Zea mays (ZEAMX); set-up: key to percentage damage caused to the plant, ZEAMX (five-point scale): 5=81-100%, 4=61-80%, 3=41-60%, 2=21-40%, 1=0-20% damage
In short: as §1

[3] = system: Amaranthus palmeri (AMAPA); test: Post-emergence Test, Amaranthus palmeri (AMAPA); set-up: key: 5=81-100%, 4=61-80%, 3=41-60%, 2=21-40%, 1=0-20% damage
In short: as §1

[4] = system: Echinochloa crus-galli (ECHCG); test: Post-emergence Test, Echinochloa crus-galli (ECHCG); set-up: key to percentage damage caused to the plant, ECHCG (five-point scale): 5=81-100%, 4=61-80%, 3=41-60%, 2=21-40%, 1=0-20% damage
In short: as §1

[5] = system: Amaranthus retoflexus (AMARE); test: Post-emergence Test, Amaranthus retoflexus (AMARE); set-up: key to percentage damage caused to the plant, AMARE (five-point scale): 5=81-100%, 4=61-80%, 3=41-60%, 2=21-40%, 1=0-20% damage
In short: as §1

[6] = system: Setaria faberi (SETFA); test: Post-emergence Test, Setaria faberi (SETFA); set-up: key to percentage damage caused to the plant, SETFA (five-point scale): 5=81-100%, 4=61-80%, 3=41-60%, 2=21-40%, 1=0-20% damage
In short: as §1

| Compound | percentage damage caused to the plant, IPOHE (five-point scale) ([1]; 250 g/Ha) | percentage damage caused to the plant, ZEAMX (five-point scale) ([2]; 250 g/Ha) | percentage damage caused to the plant, AMAPA (five-point scale) ([3]; 250 g/Ha) | percentage damage caused to the plant, ECHCG (five-point scale) ([4]; 250 g/Ha) | percentage damage caused to the plant, AMARE (five-point scale) ([5]; 250 g/Ha) | percentage damage caused to the plant, SETFA (five-point scale) ([6]; 250 g/Ha) | percentage damage caused to the plant, IPOHE (five-point scale) ([1]; 1000 g/ha) | percentage damage caused to the plant, ZEAMX (five-point scale) ([2]; 1000 g/ha) | percentage damage caused to the plant, AMAPA (five-point scale) ([3]; 1000 g/ha) | percentage damage caused to the plant, ECHCG (five-point scale) ([4]; 1000 g/ha) | percentage damage caused to the plant, AMARE (five-point scale) ([5]; 1000 g/ha) | percentage damage caused to the plant, SETFA (five-point scale) ([6]; 1000 g/ha) |
| --- | --- | --- | --- | --- | --- | --- | --- | --- | --- | --- | --- | --- |
| CCOC(=O)c1c(-c2ccc(Cl)c(Cl)c2)n(CC)c(Cn2nccc2Cl)cc1=O [Compound 67, ethyl 6-[(5-chloropyrazolo-1-yl)methyl]-2-(3,4-dichlorophenyl)-1-ethyl-4-oxo-pyridine-3-carboxylate] | 0 | 0 | 1 (1=0-20%) | 0 | 1 (1=0-20%) | 0 | – | – | – | – | – | – |
| CCn1c(Cn2ccc(C(F)(F)F)n2)cc(=O)c(C(=O)O)c1-c1ccc(Cl)c(S(C)(=O)=O)c1 [Compound 116, 2-(4-chloro-3-methylsulfonyl-phenyl)-1-ethyl-4-oxo-6-[[3-(trifluoromethyl)pyrazol-1-yl]methyl]pyridine-3-carboxylic acid] | – | – | – | – | – | – | 1 (1=0-20%) | 1 (1=0-20%) | 1 (1=0-20%) | 1 (1=0-20%) | 1 (1=0-20%) | 1 (1=0-20%) |
| CCn1c(Cn2cnc(C(F)(F)F)c2)cc(=O)c(C(=O)O)c1-c1ccc(Cl)c(Cl)c1 [Compound 10, 2-(3,4-dichlorophenyl)-1-ethyl-4-oxo-6-[[4-(trifluoromethyl)imidazol-1-yl]methyl]pyridine-3-carboxylic acid] | – | – | – | – | – | – | 1 (1=0-20%) | 1 (1=0-20%) | 0 | 0 | 0 | 0 |
| C/C=C/C(=O)Nc1ccn(Cc2cc(=O)c(C(=O)O)c(-c3ccc(Cl)c(Cl)c3)n2CC)n1 [Compound 155, 6-[[3-[[(E)-but-2-enoyl]amino]pyrazol-1-yl]methyl]-2-(3,4-dichlorophenyl)-1-ethyl-4-oxo-pyridine-3-carboxylic acid] | 1 (1=0-20%) | 0 | 1 (1=0-20%) | 1 (1=0-20%) | 1 (1=0-20%) | 1 (1=0-20%) | 0 | 0 | 1 (1=0-20%) | 1 (1=0-20%) | 0 | 0 |
| CCn1c(Cn2ccc(O)n2)cc(=O)c(C(=O)O)c1-c1ccc(Cl)c(Cl)c1 [Compound 167, 2-(3,4-dichlorophenyl)-1-ethyl-6-[(3-hydroxypyrazol-1-yl)methyl]-4-oxo-pyridine-3-carboxylic acid] | – | – | – | – | – | – | 0 | 0 | 1 (1=0-20%) | 0 | 0 | 0 |
| CCn1c(Cn2nc3ccccc3n2)cc(=O)c(C(=O)O)c1-c1ccc(Cl)c(Cl)c1 [Compound 55, 6-(benzotriazol-2-ylmethyl)-2-(3,4-dichlorophenyl)-1-ethyl-4-oxo-pyridine-3-carboxylic acid] | 0 | 0 | 1 (1=0-20%) | 2 (2=21-40%) | 1 (1=0-20%) | 0 | 3 (3=41-60%) | 1 (1=0-20%) | 3 (3=41-60%) | 2 (2=21-40%) | 0 | 1 (1=0-20%) |
| CCn1c(Cn2ccnc2C2CC2)cc(=O)c(C(=O)O)c1-c1ccc(Cl)c(Cl)c1 [Compound 95, 6-[(2-cyclopropylimidazol-1-yl)methyl]-2-(3,4-dichlorophenyl)-1-ethyl-4-oxo-pyridine-3-carboxylic acid] | – | – | – | – | – | – | 1 (1=0-20%) | 1 (1=0-20%) | 1 (1=0-20%) | 1 (1=0-20%) | 0 | 1 (1=0-20%) |
| CCOCc1ccnn1Cc1cc(=O)c(C(=O)O)c(-c2ccc(Cl)c(Cl)c2)n1CC [Compound 188, 2-(3,4-dichlorophenyl)-6-[[5-(ethoxymethyl)pyrazol-1-yl]methyl]-1-ethyl-4-oxo-pyridine-3-carboxylic acid] | – | – | – | – | – | – | 1 (1=0-20%) | 0 | 1 (1=0-20%) | 0 | 0 | 0 |
| CCn1c(Cn2nc3c(c2C(F)F)COCC3)cc(=O)c(C(=O)O)c1-c1ccc(Cl)c(Cl)c1 [Compound 97, 2-(3,4-dichlorophenyl)-6-[[3-(difluoromethyl)-6,7-dihydro-4H-pyrano[4,3-c]pyrazol-2-yl]methyl]-1-ethyl-4-oxo-pyridine-3-carboxylic acid] | 0 | 1 (1=0-20%) | 1 (1=0-20%) | 1 (1=0-20%) | 1 (1=0-20%) | 0 | – | – | – | – | – | – |
| CCn1c(Cn2nc(C(F)(F)F)cc2C2CC2)cc(=O)c(C(=O)O)c1-c1ccc(Cl)c(Cl)c1 [Compound 184, 6-[[5-cyclopropyl-3-(trifluoromethyl)pyrazol-1-yl]methyl]-2-(3,4-dichlorophenyl)-1-ethyl-4-oxo-pyridine-3-carboxylic acid] | 1 (1=0-20%) | 1 (1=0-20%) | 1 (1=0-20%) | 3 (3=41-60%) | 1 (1=0-20%) | – | 4 (4=61-80%) | 3 (3=41-60%) | 3 (3=41-60%) | – | 3 (3=41-60%) | 4 (4=61-80%) |
| CCn1c(Cn2cnc(Cl)c2)cc(=O)c(C(=O)O)c1-c1ccc(Cl)c(Cl)c1 [Compound 74, 6-[(4-chloroimidazol-1-yl)methyl]-2-(3,4-dichlorophenyl)-1-ethyl-4-oxo-pyridine-3-carboxylic acid] | – | – | – | – | – | – | 0 | 1 (1=0-20%) | 0 | 0 | 0 | 0 |
